Measurements taken from patent publication US8592174B2, “Peptidase substrates” (bioMérieux, S.A., priority 2009, dated 2013).

Experiments:
Assay type in all cases: cell-based
Conditions in all cases: 75 mg/l, 48 h 37° C.
[1] = test system: Salmonella ser. Typhimurium 0801029; assay: Peptidase detection on Columbia medium (Example 5); further: key: +++: good growth/high coloration strength; ++: medium growth/medium coloration strength; +: weak growth/weak coloration strength; −: no growth/no coloration
Protocol: (§1) After homogenization, the media were distributed into Petri dishes 55 mm in diameter. A medium acting as a growth control (Columbia) and denoted C was also poured.
(§2) Twenty-two strains of microorganisms were inoculated with a 10 μl calibrated loop according to the three-quadrant streaking method using bacterial suspensions at 0.5 McFarland.

Candida albicans 0801025 [2] = assay: Peptidase detection on Columbia medium (Example 5); further: key: +++: good growth/high coloration strength; ++: medium growth/medium coloration strength; +: weak growth/weak coloration strength; −: no growth/no coloration
Protocol: as §1, §2

[3] = test system: Staphylococcus aureus 7811049; assay: Peptidase detection on Columbia medium (Example 5); further: key: +++: good growth/high coloration strength; ++: medium growth/medium coloration strength; +: weak growth/weak coloration strength; −: no growth/no coloration
Protocol: as §1, §2

MRSA 0303033 [4] = assay: Peptidase detection on Columbia medium (Example 5)
Protocol: as §1, §2

[5] = test system: Acinetobacter baumannii 0604029; assay: Peptidase detection on Columbia medium (Example 5); further: key: +++: good growth/high coloration strength; ++: medium growth/medium coloration strength; +: weak growth/weak coloration strength; −: no growth/no coloration
Protocol: as §1, §2

[6] = test system: Pseudomonas aeruginosa 0001001; assay: Peptidase detection on Columbia medium (Example 5)
Protocol: as §1, §2

[7] = test system: Listeria monocytogenes 8812049; assay: Peptidase detection on Columbia medium (Example 5)
Protocol: as §1, §2

[8] = test system: Serratia marcescens 7303004; assay: Peptidase detection on Columbia medium (Example 5)
Protocol: as §1, §2

[9] = test system: Staphylococcus epidermidis 0203050; assay: Peptidase detection on Columbia medium (Example 5)
Protocol: as §1, §2

[10] = test system: Enterobacter cloacae 0604040; assay: Peptidase detection on Columbia medium (Example 5)
Protocol: as §1, §2

[11] = test system: Enterococcus faecalis 0008192; assay: Peptidase detection on Columbia medium (Example 5)
Protocol: as §1, §2

[12] = test system: Yersinia enterocolitica 7605019; assay: Peptidase detection on Columbia medium (Example 5)
Protocol: as §1, §2

[13] = test system: Bacillus subtilis 0204038; assay: Peptidase detection on Columbia medium (Example 5)
Protocol: as §1, §2

[14] = test system: Morganella morganii 9207053; assay: Peptidase detection on Columbia medium (Example 5)
Protocol: as §1, §2

[15] = test system: Klebsiella pneumoniae 0008009; assay: Peptidase detection on Columbia medium (Example 5)
Protocol: as §1, §2

[16] = test system: Streptococcus pyogenes 9806380; assay: Peptidase detection on Columbia medium (Example 5)
Protocol: as §1, §2

[17] = test system: Providencia rettgeri 0706064; assay: Peptidase detection on Columbia medium (Example 5)
Protocol: as §1, §2

[18] = test system: Burkholderia cepacia 7507032; assay: Peptidase detection on Columbia medium (Example 5)
Protocol: as §1, §2

Candida glabrata 0408083 [19] = assay: Peptidase detection on Columbia medium (Example 5)
Protocol: as §1, §2

Escherichia coli 0002005 [20] = assay: Peptidase detection on Columbia medium (Example 5)
Protocol: as §1, §2

[21] = test system: Citrobacter freundii 0006197; assay: Peptidase detection on Columbia medium (Example 5)
Protocol: as §1, §2

[22] = test system: Enterococcus faecium 0610021; assay: Peptidase detection on Columbia medium (Example 5)
Protocol: as §1, §2

Candida albicans 0801025 [23] = assay: Peptidase detection on Columbia medium (Example 4)
Text: (§3) After homogenization, the media were distributed into 120-mm-squared dishes. A medium serving as a growth control (Columbia) and denoted C was also poured.

[24] = test system: Staphylococcus aureus 7811049; assay: Peptidase detection on Columbia medium (Example 4)
Text: as §3

MRSA 0303033 [25] = assay: Peptidase detection on Columbia medium (Example 4)
Text: as §3

[26] = test system: Acinetobacter baumannii 0604029; assay: Peptidase detection on Columbia medium (Example 4)
Text: as §3

[27] = test system: Pseudomonas aeruginosa 0001001; assay: Peptidase detection on Columbia medium (Example 4)
Text: as §3

[28] = test system: Listeria monocytogenes 8812049; assay: Peptidase detection on Columbia medium (Example 4)
Text: as §3

[29] = test system: Serratia marcescens 7303004; assay: Peptidase detection on Columbia medium (Example 4)
Text: as §3

[30] = test system: Staphylococcus epidermidis 0203050; assay: Peptidase detection on Columbia medium (Example 4)
Text: as §3

[31] = test system: Enterobacter cloacae 0604040; assay: Peptidase detection on Columbia medium (Example 4)
Text: as §3

[32] = test system: Enterococcus faecalis 0008192; assay: Peptidase detection on Columbia medium (Example 4)
Text: as §3

[33] = test system: Yersinia enterocolitica 7605019; assay: Peptidase detection on Columbia medium (Example 4)
Text: as §3

[34] = test system: Bacillus subtilis 0204038; assay: Peptidase detection on Columbia medium (Example 4)
Text: as §3

[35] = test system: Morganella morganii 9207053; assay: Peptidase detection on Columbia medium (Example 4)
Text: as §3

[36] = test system: Klebsiella pneumoniae 0008009; assay: Peptidase detection on Columbia medium (Example 4)
Text: as §3

[37] = test system: Streptococcus pyogenes 9806380; assay: Peptidase detection on Columbia medium (Example 4)
Text: as §3

[38] = test system: Providencia rettgeri 0706064; assay: Peptidase detection on Columbia medium (Example 4)
Text: as §3

[39] = test system: Burkholderia cepacia 7507032; assay: Peptidase detection on Columbia medium (Example 4)
Text: as §3

Candida glabrata 0408083 [40] = assay: Peptidase detection on Columbia medium (Example 4)
Text: as §3

Escherichia coli 0002005 [41] = assay: Peptidase detection on Columbia medium (Example 4)
Text: as §3

[42] = test system: Citrobacter freundii 0006197; assay: Peptidase detection on Columbia medium (Example 4)
Text: as §3

[43] = test system: Enterococcus faecium 0610021; assay: Peptidase detection on Columbia medium (Example 4)
Text: as §3

[44] = test system: Salmonella ser typhimurium 0801029; assay: Peptidase detection on Columbia medium (Example 4)
Text: as §3

For `C[C@H](N)C(=O)Nc1ccc(C=Cc2ccc3ccccc3[n+]2C)cc1.Cl.[Cl-]` [L-alanyl-2-(4′-amidostyryl)-N-methylquinolinium (dichloride)], the Coloration strength [1] was “−”, the Growth ([1]; control C: ++) was “++” and the Coloration strength (Candida albicans 0801025 [2]) was “−”. For the same molecule, the Growth (Candida albicans 0801025 [2]; control C: ++) was “++”, the Coloration strength [3] was “−” and the Growth ([3]; control C: ++) was “++”. The Color (MRSA 0303033 [4]) was “orange”, the Coloration strength (MRSA 0303033 [4]) was “+” and the Growth (MRSA 0303033 [4]; control C: ++) was “++”. The Coloration strength [5] was “−”, the Growth ([5]; control C: ++) was “++” and the Coloration strength [6] was “−”. The Growth ([6]; control C: ++) was “++”, the Color [7] was “orange” and the Coloration strength [7] was “+”. For the same molecule, the Growth ([7]; control C: +) was “+”, the Color [8] was “orange” and the Coloration strength [8] was “+”. For the same molecule, the Growth ([8]; control C: ++) was “++”, the Color [9] was “orange” and the Coloration strength [9] was “+”. The Growth ([9]; control C: ++) was “++”, the Coloration strength [10] was “−” and the Growth ([10]; control C: ++) was “++”. The Color [11] was “orange”, the Coloration strength [11] was “+” and the Growth ([11]; control C: +) was “+”. The Coloration strength [12] was “−”, the Growth ([12]; control C: +) was “+” and the Color [13] was “orange”. The Coloration strength [13] was “+”, the Growth ([13]; control C: ++) was “++” and the Coloration strength [14] was “−”. The Growth ([14]; control C: ++) was “++”, the Coloration strength [15] was “−” and the Growth ([15]; control C: ++) was “++”. For the same molecule, the Coloration strength [16] was “−”, the Growth ([16]; control C: +) was “+” and the Coloration strength [17] was “−”. The Growth ([17]; control C: ++) was “++”, the Coloration strength [18] was “−” and the Growth ([18]; control C: ++) was “++”. For the same molecule, the Coloration strength (Candida glabrata 0408083 [19]) was “−”, the Growth (Candida glabrata 0408083 [19]; control C: +) was “+” and the Coloration strength (Escherichia coli 0002005 [20]) was “−”. The Growth (Escherichia coli 0002005 [20]; control C: ++) was “++”, the Coloration strength [21] was “−” and the Growth ([21]; control C: ++) was “++”. The Color [22] was “orange”, the Coloration strength [22] was “+” and the Growth ([22]; control C: +) was “+”.
For `C[C@H](N)C(=O)N[C@@H](C)C(=O)Nc1ccc(C=Cc2cc[n+](C)c3ccccc23)cc1.Cl.[Cl-]` [L-alanyl-L-alanyl-4-(4′-amidostyryl)-N-methylquinolinium (dichloride)], the Coloration strength (Candida albicans 0801025 [23]) was “−”, the Growth (Candida albicans 0801025 [23]; control C: ++) was “+” and the Color [24] was “−”. The Coloration strength [24] was “−”, the Growth ([24]; control C: ++) was “++” and the Color (MRSA 0303033 [25]) was “−”. The Coloration strength (MRSA 0303033 [25]) was “−”, the Growth (MRSA 0303033 [25]; control C: ++) was “++” and the Color [26] was “orange”. For the same molecule, the Coloration strength [26] was “+”, the Growth ([26]; control C: ++) was “++” and the Color [27] was “−”. The Coloration strength [27] was “−”, the Growth ([27]; control C: ++) was “++” and the Color [28] was “orange”. The Coloration strength [28] was “+”, the Growth ([28]; control C: ++) was “++” and the Color [29] was “orange”. For the same molecule, the Coloration strength [29] was “+”, the Growth ([29]; control C: ++) was “++” and the Color [30] was “−”. The Coloration strength [30] was “−”, the Growth ([30]; control C: ++) was “++” and the Color [31] was “orange”. For the same molecule, the Coloration strength [31] was “+”, the Growth ([31]; control C: ++) was “++” and the Color [32] was “−”. For the same molecule, the Coloration strength [32] was “−”, the Growth ([32]; control C: ++) was “++” and the Color [33] was “−”. The Coloration strength [33] was “−”, the Growth ([33]; control C: ++) was “++” and the Color [34] was “−”. For the same molecule, the Coloration strength [34] was “−”, the Growth ([34]; control C: ++) was “++” and the Color [35] was “−”. The Coloration strength [35] was “−”, the Growth ([35]; control C: ++) was “++” and the Color [36] was “orange”. The Coloration strength [36] was “+”, the Growth ([36]; control C: ++) was “++” and the Color [37] was “orange”. For the same molecule, the Coloration strength [37] was “+”, the Growth ([37]; control C: ++) was “++” and the Color [38] was “−”. The Coloration strength [38] was “−”, the Growth ([38]; control C: ++) was “++” and the Color [39] was “−”. For the same molecule, the Coloration strength [39] was “−”, the Growth ([39]; control C: ++) was “++” and the Coloration strength (Candida glabrata 0408083 [40]) was “−”. The Growth (Candida glabrata 0408083 [40]; control C: +) was “−”, the Color (Escherichia coli 0002005 [41]) was “−” and the Coloration strength (Escherichia coli 0002005 [41]) was “−”. For the same molecule, the Growth (Escherichia coli 0002005 [41]; control C: ++) was “++”, the Color [42] was “−” and the Coloration strength [42] was “−”. The Growth ([42]; control C: ++) was “++”, the Color [43] was “−” and the Coloration strength [43] was “−”. For the same molecule, the Growth ([43]; control C: ++) was “++”, the Color [44] was “−” and the Coloration strength [44] was “−”. The Growth ([44]; control C: ++) was “++”.
